The values that follow come from paper PMC5133562, “Engineering of a thermostable esterase Est816 to improve its quorum-quenching activity and the underlying structural basis” (Scientific Reports, 2016).

Common to all, as to assay: HPLC, […] nm; lactonase buffer kinetic assay (method of Thomas et al.)
Type in all cases: biochemical
Conditions in all cases: 30 °C; lactone hydrolysis

The target in test [1] is T1, Est816 (uncultured bacterium, UniProt Z9COY3ZA92, A133F/K155N/V216F, form not given).
T1 construct: full length, C-terminal 6xHis tag (pET-21b), E. coli BL21(DE3); catalytic triad S93, D214, H242
T1 sequence (Z9COY3ZA92 1-260 A133F/K155N/V216F): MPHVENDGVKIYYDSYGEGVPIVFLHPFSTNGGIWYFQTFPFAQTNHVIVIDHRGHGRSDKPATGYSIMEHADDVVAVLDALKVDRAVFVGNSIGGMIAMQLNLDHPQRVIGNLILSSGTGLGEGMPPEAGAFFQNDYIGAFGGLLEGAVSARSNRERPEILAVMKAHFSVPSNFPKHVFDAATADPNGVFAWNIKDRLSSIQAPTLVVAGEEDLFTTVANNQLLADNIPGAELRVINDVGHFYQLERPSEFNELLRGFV

In test [2] the target is T2, Est816 (uncultured bacterium, UniProt Z9COY3ZA92, V216A/N238K, form not given).
T2 construct: full length, C-terminal 6xHis tag (pET-21b), E. coli BL21(DE3); catalytic triad S93, D214, H242
T2 sequence (Z9COY3ZA92 1-260 V216A/N238K): T1 sequence (Z9COY3ZA92 1-260 A133F/K155N/V216F) with F133A, N155K, F216A, N238K

For test [3], the target named is T3, Est816 (uncultured bacterium, UniProt Z9COY3ZA92, V216A, form not given).
T3 construct: full length, C-terminal 6xHis tag (pET-21b), E. coli BL21(DE3); catalytic triad S93, D214, H242
T3 sequence (Z9COY3ZA92 1-260 V216A): T1 sequence (Z9COY3ZA92 1-260 A133F/K155N/V216F) with F133A, N155K, F216A

In test [4] the target is T4, Est816 (uncultured bacterium, UniProt Z9COY3ZA92, A133V/K155N, form not given).
T4 construct: full length, C-terminal 6xHis tag (pET-21b), E. coli BL21(DE3); catalytic triad S93, D214, H242
T4 sequence (Z9COY3ZA92 1-260 A133V/K155N): T1 sequence (Z9COY3ZA92 1-260 A133F/K155N/V216F) with F133V, F216V

In test [5] the target is T5, Est816 (uncultured bacterium, UniProt Z9COY3ZA92, P27G/F28N, form not given).
T5 construct: full length, C-terminal 6xHis tag (pET-21b), E. coli BL21(DE3); catalytic triad S93, D214, H242
T5 sequence (Z9COY3ZA92 1-260 P27G/F28N): T1 sequence (Z9COY3ZA92 1-260 A133F/K155N/V216F) with P27G, F28N, F133A, N155K, F216V

For test [6], the target named is T6, Est816 (uncultured bacterium, UniProt Z9COY3ZA92, L122A, form not given).
T6 construct: full length, C-terminal 6xHis tag (pET-21b), E. coli BL21(DE3); catalytic triad S93, D214, H242
T6 sequence (Z9COY3ZA92 1-260 L122A): T1 sequence (Z9COY3ZA92 1-260 A133F/K155N/V216F) with L122A, F133A, N155K, F216V

Test [7] addresses T7, Est816 (uncultured bacterium, UniProt Z9COY3ZA92, N238K, form not given).
T7 construct: full length, C-terminal 6xHis tag (pET-21b), E. coli BL21(DE3); catalytic triad S93, D214, H242
T7 sequence (Z9COY3ZA92 1-260 N238K): T1 sequence (Z9COY3ZA92 1-260 A133F/K155N/V216F) with F133A, N155K, F216V, N238K

As usually defined, the Km is the substrate concentration at which the rate is half of its maximum.

Each structure is given as a SMILES string. Where a chain is given by its changes, count along the chain named.

For `CCCCCCCC(=O)NC1CCOC1=O` (racemic) [C8-HSL, N-octanoyl-DL-homoserine lactone], the Michaelis-Menten constant (Km) on Est816 [1] was 759 ± 62.2 µM; at Est816 [2] it was 1.14 ± 0.101 mM; on Est816 [3], 5.8 ± 0.289 mM; at Est816 [4] it was 3.49 ± 0.146 mM; on Est816 [5], 3.09 ± 0.198 mM; at Est816 [6], 105 ± 7.2 µM. Besides, at Est816 [7], the Km was 210 ± 15.5 µM.
